The record followed here is patent US20240246954A1, “COMPOSITIONS AND METHODS FOR INHIBITING KRAS” (TheRas, Inc., priority 2021, published 2024).

For assay [1], the target named is T1, Avi-KRAS G12D (1-169) GppNHp/RAF1 RBD-3×FLAG (52-151) (Homo sapiens, UniProt P01116, G12D).
T1 construct: Avi-KRAS G12D (1-169) GppNHp
In words: HTRF Raf1-KRAS G12D-GppNHp disruption assay. The following applies: 1 h incubation. In kind it is biochemical. How it is done:
(§1) The HTRF assay employed the following protocol:
(§2) Compounds were dispensed in assay plate (384-well, Grenier Bione #784075) using Echo (model 555) with dose response settings: 200 nL final volume, titration from 100 μM as a 10-point dilution series. Protein mix was prepared in assay buffer, and dispensed on plates, 10 μL per well, then incubated for 1 h at room temperature, with 700 rpm shaking. Reagents mix was prepared and dispensed on plates, 10 μL per well, then incubated for 1 h at room temperature, with 700 rpm shaking.
(§3) Plates were analyzed on an Envision plate reader using the following setting: Excitation 320 nm, Bandwidth […]; Emission 615 nm, Bandwidth […], Gain 100%, Flashes 100, Lag 60 μs. Data was reported as percentage of activity, with DMSO as 100%. Data was plotted and analyzed using Prism 8.
(In general: TR-FRET usually uses a lanthanide donor and a delayed reading to cut background.)

The target of assay [2] is T2, Avi-KRAS G12D/Q25A (1-169) GppNHp/3×FLAG-PI3KCA (157-299) (Homo sapiens, UniProt P01116, G12D/Q25A).
T2 construct: Avi-KRAS G12D/Q25A (1-169) GppNHp
In words: HTRF PI3KCA-KRAS G12D/Q25A-GppNHp disruption assay. It is filed as biochemical. The following applies: 1 h incubation. How it is done:
as §1, §2, §3

Each structure is given as a SMILES string.

T2 sequence (P01116 1-169 isoform P01116-2 G12D/Q25A limits assumed): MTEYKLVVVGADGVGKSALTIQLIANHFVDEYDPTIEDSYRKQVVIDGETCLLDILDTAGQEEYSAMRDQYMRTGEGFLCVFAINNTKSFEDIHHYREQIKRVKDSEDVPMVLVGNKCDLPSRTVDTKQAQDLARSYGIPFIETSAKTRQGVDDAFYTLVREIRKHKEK
T1 sequence (P01116 1-169 isoform P01116-2 G12D limits assumed): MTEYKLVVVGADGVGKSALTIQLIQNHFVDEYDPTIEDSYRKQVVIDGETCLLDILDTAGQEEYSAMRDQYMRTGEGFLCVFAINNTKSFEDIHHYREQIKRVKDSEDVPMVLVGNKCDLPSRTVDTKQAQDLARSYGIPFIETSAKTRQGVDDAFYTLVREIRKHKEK

By IC50 is commonly meant the concentration that gives 50% inhibition. Low readings indicate greater potency in that assay, high ones weaker potency in that assay. Regarding `CN1CCC[C@H]1COc1nc(N(C2CC2)C2CNC2)c2cc(Cl)c(-c3ccc(F)c4sc(N)nc34)c(F)c2n1` [Compound 152], the IC50 in assay [1] and in assay [2] was 10 to 30 µM in each case.

`CC1(C)CN2CCCC2(COc2nc(N3CCNCC3)c3cc(C(F)(F)F)c(-c4ccc(F)c5sc(N)nc45)c(F)c3n2)C1` (stereo not drawn) [Compound 198]: the 50% inhibitory concentration (IC50) in assay [1] and in assay [2] was 1 to 10 µM in each case.

As to `CN(c1nc(OC[C@@H]2CCCN2C)nc2c(F)c(-c3ccc(F)c4sc(N)nc34)c(Cl)cc12)C1CN(C(=O)CN)C1` [Compound 147], the half-inhibitory concentration (IC50) in assay [1] and in assay [2] was 10 to 30 µM each time.

For the compound `CN(c1nc(OCC23CCCN2CCC3)nc2c(F)c(-c3ccc(F)c4sc(N)nc34)c(Cl)cc12)C1CN(C(=O)CN)C1` [Compound 164], the IC50 in assay [1] and in assay [2] was 10 to 30 µM throughout.

`Nc1nc2c(-c3c(C(F)F)cc4c(N5CCNCC5)nc(OCC56CCCN5CCC6)nc4c3F)ccc(F)c2s1` [Compound 227]: the IC50 in assay [1] and in assay [2] was 1 to 10 µM in each case.

Take `CCN(c1nc(OC[C@@H]2CCCN2C)nc2c(F)c(-c3ccc(F)c4sc(N)nc34)c(Cl)cc12)C1CN(C(=O)CN)C1` [Compound 197]: the 50% inhibitory concentration (IC50) in assay [1] and in assay [2] was 10 to 30 µM each time.

`Nc1nc2c(-c3c(Cl)cc4c(NC5CNC5)nc(OCC56CCCN5CCC6)nc4c3F)ccc(F)c2o1` [Compound 192]: the half-inhibitory concentration (IC50) in assay [1] and in assay [2] was 1 to 10 µM each time.

Consider `CN1CCC[C@H]1COc1nc(N2CCNCC2)c2cc(OC(F)(F)F)c(-c3ccc(F)c4sc(N)nc34)c(F)c2n1` [Compound 191], for which the IC50 in assay [1] and in assay [2] was 1 to 10 µM in each case.

Consider `Nc1nc2c(-c3c(C(F)(F)F)cc4c(NC5C[C@H]6CCC5N6)nc(OCC56CCCN5CCC6)nc4c3F)ccc(F)c2s1` (stereo partly drawn) [Compound 286], for which the IC50 in assay [1] and in assay [2] was 0.1 to 1 µM in each case.

For the compound `Nc1nc2c(-c3c(C4CCC4)cc4c(N5CCNCC5)ncnc4c3F)ccc(F)c2s1` [Compound 154], the IC50 in assay [1] and in assay [2] was 10 to 30 µM throughout.

`C[C@H]1CNCCN1c1nc(OC[C@@]23CCCN2C[C@@H](F)C3)nc2c(F)c(-c3ccc(F)c4sc(N)nc34)c(C(F)(F)F)cc12` [Compound 222]: the IC50 in assay [1] is 1 to 10 µM; in assay [2], 10 to 30 µM.

`Nc1nc2c(F)ccc(-c3c(-c4ccoc4)cc4c(NC5CNC5)nc(OCC56CCCN5CCC6)nc4c3F)c2s1` [Compound 113]: the figures for the IC50 in assay [1] and in assay [2] were 0.1 to 1 µM and 1 to 10 µM, respectively.

Turning to `CN1C[C@H](F)C[C@H]1COc1nc(NC2CN(C(=O)CN)C2)c2cc(-c3ccoc3)c(-c3ccc(F)c4sc(N)nc34)c(F)c2n1` [Compound 137], the figures for the IC50 in assay [1] and in assay [2] were 1 to 10 µM and 10 to 30 µM, respectively.

For `CO[C@@H]1C[C@@H](COc2nc(NC3CNC3)c3cc(Cl)c(-c4ccc(F)c5sc(N)nc45)c(F)c3n2)N(C)C1` [Compound 73], the IC50 was 1 to 10 µM in assay [1] and 10 to 30 µM in assay [2].

Turning to `CN(c1nc(OCC23CCCN2CCC3)nc2c(F)c(-c3ccc(F)c4sc(N)nc34)c(-c3ccoc3)cc12)C1CN(C(=O)CN)C1` [Compound 163], the IC50 in assay [1] and in assay [2] was 10 to 30 µM in each case.

For `Nc1nc2c(-c3c(C(F)(F)F)cc4c(NC5CC6CC[C@H]5N6)nc(OCC56CCCN5CCC6)nc4c3F)ccc(F)c2s1` (stereo partly drawn) [Compound 266], the IC50 in assay [1] lay in the range of 0.1 to 1 µM; in assay [2], 1 to 10 µM.

As to `N#CCCN1CCC[C@H]1COc1nc(NC2CNC2)c2cc(Cl)c(-c3ccc(F)c4sc(N)nc34)c(F)c2n1` [Compound 178], the half-inhibitory concentration (IC50) in assay [1] and in assay [2] was 10 to 30 µM each time.

Regarding `CN1CC(F)(F)C[C@H]1COc1nc(NCCN)c2cc(Cl)c(-c3ccc(F)c4sc(N)nc34)c(F)c2n1` [Compound 136], the concentration for half-maximal inhibition (IC50) in assay [1] and in assay [2] was 10 to 30 µM each time.

Consider `Nc1nc2c(-c3c(C(F)(F)F)cc4c(N[C@H]5C[C@@H]6CC[C@H]5N6)nc(OCC56CCCN5CCC6)nc4c3F)ccc(F)c2s1` (atropisomer, axis not shown) [Compound 287], for which the concentration for half-maximal inhibition (IC50) in assay [1] and in assay [2] was 1 to 10 µM in each case.

As for `C[C@@H]1CNC[C@@H]1N(C)c1nc(OC[C@@]23CCCN2C[C@H](F)C3)nc2c(F)c(-c3ccc(F)c4sc(N)nc34)c(C(F)(F)F)cc12` [Compound 292], the IC50 in assay [1] and in assay [2] was 1 to 10 µM in each case.

Regarding `CN1CCC[C@H]1COc1nc(NC2CNC2)c2cnc(-c3ccc(F)c4sc(N)nc34)c(F)c2n1` [Compound 80], the half-maximal inhibitory concentration (IC50) in assay [1] and in assay [2] was 10 to 30 µM throughout.

Turning to `CN1CCC[C@H]1COc1nc(N2CCNCC2)c2cc(-c3cccnc3)c(-c3ccc(F)c4sc(N)nc34)c(F)c2n1` [Compound 155, 7-fluoro-4-(8-fluoro-2-(((S)-1-methylpyrrolidin-2-yl)methoxy)-4-(piperazin-1-yl)-6-(pyridin-3-yl)quinazolin-7-yl)benzo[d]thiazol-2-amine], the figures for the 50% inhibitory concentration (IC50) in assay [1] and in assay [2] were 10 to 30 µM and 1 to 10 µM, respectively.

Consider `Nc1nc2c(-c3c(C(F)(F)F)cc4c(N5CCC6(CCNC6)CC5)nc(OCC56CCCN5CCC6)nc4c3F)ccc(F)c2s1` [Compound 308], for which the IC50 in assay [1] is 0.1 to 1 µM; in assay [2] it was 1 to 10 µM.

On to `CN1CCC[C@H]1COc1nc(NC2CN(C(=O)CN)C2)c2cc(-c3ccoc3)c(-c3ccc(F)c4sc(N)nc34)c(F)c2n1` [Compound 146], for which the IC50 was 1 to 10 µM in assay [1] and 10 to 30 µM in assay [2].

For the compound `Oc1cc(-c2c(Cl)cc3c(N4CC5CCC(C4)N5)nc(OCC45CCCN4CCC5)nc3c2F)c2ccccc2c1` [Compound 161], the IC50 in assay [1] and in assay [2] was 1 to 10 µM in each case.

Consider `CN1CCC[C@H]1COc1nc(NC2CN(C(=O)CN)C2)c2cc(Cl)c(-c3ccc(F)c4sc(N)nc34)c(F)c2n1` [Compound 97], for which the figures for the half-inhibitory concentration (IC50) in assay [1] and in assay [2] were 1 to 10 µM and 10 to 30 µM, respectively.

With `Nc1nc2c(-c3c(-c4ccoc4)cc4c(N5CC6CCC(C5)N6)nc(OCC56CCCN5CCC6)nc4c3F)ccc(F)c2s1` [Compound 159], the IC50 in assay [1] lay within 0.1 to 1 µM; in assay [2], 10 to 30 µM.

For the compound `CN(c1nc(OCC23CCCN2CCC3)nc2c(F)c(-c3ccc(F)c4sc(N)nc34)c(C(F)(F)F)cc12)[C@@H]1CCN(C(=O)CN)C1` (atropisomer, axis not shown) [Compound 277], the IC50 in assay [1] and in assay [2] was 1 to 10 µM throughout.

Turning to `CN(c1nc(OCC23CCCN2CCC3)nc2c(F)c(-c3ccc(F)c4sc(N)nc34)c(C(F)(F)F)cc12)[C@H]1C[C@@H](N)C1` (atropisomer, axis not shown) [Compound 250], the IC50 in assay [1] and in assay [2] was 0.1 to 1 µM in each case.

As for `CN1CCC[C@H]1COc1nc(N2CCNCC2)c2cc(CC#N)c(-c3ccc(F)c4sc(N)nc34)c(F)c2n1` [Compound 175, 2-[7-(2-amino-7-fluoro-1,3-benzothiazol-4-yl)-8-fluoro-2-[[(2S)-1-methylpyrrolidin-2-yl]methoxy]-4-piperazin-1-yl-quinazolin-6-yl]acetonitrile], the IC50 in assay [1] is 10 to 30 µM; in assay [2], 1 to 10 µM.

Turning to `CN1CCC[C@H]1COc1nc(N(CCC#N)C2CN(C(=O)CN)C2)c2cc(Cl)c(-c3ccc(F)c4sc(N)nc34)c(F)c2n1` [Compound 183], the IC50 in assay [1] and in assay [2] was 10 to 30 µM in each case.

For `Nc1nc2c(-c3c(C(F)(F)F)cc4c(N5CCNCC5)nc(OCC56CCCN5CCC6)nc4c3F)ccc(F)c2s1` [Compound 123], the IC50 in assay [1] and in assay [2] was 1 to 10 µM each time.

With `CN1CCC[C@H]1COc1nc(N2CCNCC2)c2cc(-c3ccoc3)c(-c3ccc(F)c4sc(N)nc34)c(F)c2n1` [Compound 143, 7-fluoro-4-(8-fluoro-6-(furan-3-yl)-2-(((S)-1-methylpyrrolidin-2-yl)methoxy)-4-(piperazin-1-yl)quinazolin-7-yl)benzo[d]thiazol-2-amine], the IC50 in assay [1] and in assay [2] was 10 to 30 µM each time.

As for `CN1CCC[C@H]1COc1nc(N2CC3(CCCN3)C2)c2cc(Cl)c(-c3ccc(F)c4sc(N)nc34)c(F)c2n1` [Compound 85], the IC50 in assay [1] and in assay [2] was 10 to 30 µM each time.

In the case of `CN1CCC[C@H]1COc1nc(NCCN)c2cc(Cl)c(-c3cccc4nc(N)sc34)c(F)c2n1` [Compound 100], the IC50 in assay [1] and in assay [2] was 10 to 30 µM throughout.

With `Nc1nc2c(-c3c(Cl)cc4c(NC5CNC5)nc(O)nc4c3F)ccc(F)c2s1` [Compound 90], the IC50 in assay [1] and in assay [2] was 10 to 30 µM throughout.

Turning to `Nc1nc2c(-c3c(-c4ccoc4)cc4c(N5CC6CCC(C5)N6)nc(OC[C@@]56CCCN5C[C@H](F)C6)nc4c3F)ccc(F)c2s1` [Compound 237], the values for the IC50 in assay [1] and in assay [2] were 0.1 to 1 µM and 1 to 10 µM, respectively.

As to `Nc1nc2c(-c3c(OC(F)(F)F)cc4c(N5CC6CCC(C5)N6)nc(OC[C@@]56CCCN5C[C@H](F)C6)nc4c3F)ccc(F)c2o1` [Compound 233], the half-inhibitory concentration (IC50) in assay [1] and in assay [2] was 1 to 10 µM throughout.

For `CO[C@@H]1C[C@@H](COc2nc(NC3CNC3)c3cc(C(F)(F)F)c(-c4ccc(F)c5sc(N)nc45)c(F)c3n2)N(C)C1` [Compound 122], the IC50 in assay [1] and in assay [2] was 1 to 10 µM in each case.
